Assay results reported in the NIST ThermoML archive (doi:10.1021/je100832h).

What was measured:
[1] = xn = mol fraction of the nth substance listed; settings: 101.32 kPa, Liquid, Vibrating tube method
[2] = excess molar enthalpy (molar enthalpy of mixing); xn = mol fraction of the nth substance listed; settings: 291.15 K, 101 kPa, Liquid, Calvet calorimetry

CCCCCCCCC [nonane] + CCOC(C)=O
[1]
Settings | mass density [kg/m3]
291.15 K, x2 = 0 | 719.2
291.15 K, x2 = 0.0328 | 721.88
291.15 K, x2 = 0.0796 | 726
291.15 K, x2 = 0.1292 | 730.54
291.15 K, x2 = 0.2225 | 740.13
291.15 K, x2 = 0.3076 | 750
291.15 K, x2 = 0.3932 | 761.25
291.15 K, x2 = 0.4659 | 771.77
291.15 K, x2 = 0.5694 | 788.99
291.15 K, x2 = 0.6015 | 794.91
291.15 K, x2 = 0.6514 | 804.7
291.15 K, x2 = 0.7041 | 815.84
291.15 K, x2 = 0.7547 | 827.59
291.15 K, x2 = 0.8076 | 840.96
291.15 K, x2 = 0.8502 | 852.64
291.15 K, x2 = 0.8954 | 866.2
291.15 K, x2 = 0.9307 | 877.58
291.15 K, x2 = 0.9918 | 899.59
298.15 K, x2 = 0 | 713.85
298.15 K, x2 = 0.0652 | 719.2
298.15 K, x2 = 0.1102 | 723.17
298.15 K, x2 = 0.1906 | 730.94
298.15 K, x2 = 0.2667 | 739.14
298.15 K, x2 = 0.3377 | 747.65
298.15 K, x2 = 0.4128 | 757.7
298.15 K, x2 = 0.4737 | 766.6
298.15 K, x2 = 0.5212 | 774.12
298.15 K, x2 = 0.5875 | 785.5
298.15 K, x2 = 0.6305 | 793.54
298.15 K, x2 = 0.6743 | 802.32
298.15 K, x2 = 0.7212 | 812.53
298.15 K, x2 = 0.767 | 823.2
298.15 K, x2 = 0.8024 | 832.16
298.15 K, x2 = 0.8428 | 843.01
298.15 K, x2 = 0.8654 | 849.38
298.15 K, x2 = 0.9419 | 873.16
298.15 K, x2 = 0.9564 | 878.07
318.15 K, x2 = 0 | 698.09
318.15 K, x2 = 0.0372 | 700.83
318.15 K, x2 = 0.1287 | 708.3
318.15 K, x2 = 0.2206 | 717
318.15 K, x2 = 0.3125 | 726.84
318.15 K, x2 = 0.3941 | 736.68
318.15 K, x2 = 0.4659 | 746.38
318.15 K, x2 = 0.5311 | 756.19
318.15 K, x2 = 0.5965 | 767.1
318.15 K, x2 = 0.6714 | 781.02
318.15 K, x2 = 0.7111 | 789.15
318.15 K, x2 = 0.7598 | 799.77
318.15 K, x2 = 0.8122 | 812.28
318.15 K, x2 = 0.8596 | 824.75
318.15 K, x2 = 0.8955 | 835.04
318.15 K, x2 = 0.936 | 847.56
318.15 K, x2 = 0.9808 | 862.66
328.15 K, x2 = 0 | 690.4
328.15 K, x2 = 0.0202 | 691.7
328.15 K, x2 = 0.1246 | 699.9
328.15 K, x2 = 0.2225 | 708.81
328.15 K, x2 = 0.3109 | 717.88
328.15 K, x2 = 0.3923 | 727.35
328.15 K, x2 = 0.4644 | 736.84
328.15 K, x2 = 0.5377 | 747.63
328.15 K, x2 = 0.6125 | 759.98
328.15 K, x2 = 0.7233 | 781.1
328.15 K, x2 = 0.7593 | 788.8
328.15 K, x2 = 0.8102 | 800.56
328.15 K, x2 = 0.8505 | 810.9
328.15 K, x2 = 0.8934 | 822.54
328.15 K, x2 = 0.9507 | 840.17
328.15 K, x2 = 0.9876 | 852.64

[2]
Settings | excess molar enthalpy [kcal/mol]
x2 = 0.0872 | 0.132
x2 = 0.1735 | 0.225
x2 = 0.2499 | 0.299
x2 = 0.3159 | 0.351
x2 = 0.3746 | 0.383
x2 = 0.433 | 0.404
x2 = 0.4869 | 0.414
x2 = 0.534 | 0.416
x2 = 0.5836 | 0.412
x2 = 0.6005 | 0.406
x2 = 0.6419 | 0.393
x2 = 0.6885 | 0.374
x2 = 0.7366 | 0.346
x2 = 0.7846 | 0.31
x2 = 0.8345 | 0.263
x2 = 0.8779 | 0.205
x2 = 0.9237 | 0.141
x2 = 0.9619 | 0.0734
